# Tests used:
# Talaromyces marneffei [1] = assay: Fungicidal activity against Talaromyces marneffei after 48 hr; assay type: functional
# Aspergillus fumigatus [2] = assay: Fungicidal activity against Aspergillus fumigatus after 48 hr; assay type: functional
# [3] = tested on: Trichophyton mentagrophytes; assay: Fungicidal activity against Trichophyton mentagrophytes after 48 hr; assay type: functional
# Candida albicans [4] = assay: Fungicidal activity against Candida albicans after 48 hr; assay type: functional
# Talaromyces marneffei [5] = assay: Antifungal activity against Talaromyces marneffei assessed as growth inhibition after 48 hr by macrodilution method; assay type: functional
# [6] = tested on: Trichophyton mentagrophytes; assay: Antifungal activity against Trichophyton mentagrophytes assessed as growth inhibition after 48 hr by macrodilution method; assay type: functional
# Aspergillus fumigatus [7] = assay: Antifungal activity against Aspergillus fumigatus assessed as growth inhibition after 48 hr by macrodilution method; assay type: functional
# Candida albicans [8] = assay: Antifungal activity against Candida albicans assessed as growth inhibition after 48 hr by macrodilution method; assay type: functional
# Talaromyces marneffei [9] = assay: Antifungal activity against Talaromyces marneffei assessed as growth inhibition after 3 to 4 days by disk diffusion assay; assay type: functional
# Klebsiella pneumoniae [10] = assay: Antibacterial activity against Klebsiella pneumoniae clinical isolate assessed as growth inhibition after 24 hr by disk diffusion assay; assay type: functional
# Pseudomonas aeruginosa [11] = assay: Antibacterial activity against Pseudomonas aeruginosa ATCC 27853 assessed as growth inhibition after 24 hr by disk diffusion assay; assay type: functional
# [12] = tested on: Trichophyton mentagrophytes; assay: Antifungal activity against Trichophyton mentagrophytes assessed as growth inhibition after 3 to 4 days by disk diffusion assay; assay type: functional
# Aspergillus fumigatus [13] = assay: Antifungal activity against Aspergillus fumigatus assessed as growth inhibition after 3 to 4 days by disk diffusion assay; assay type: functional
# Candida albicans [14] = assay: Antifungal activity against Candida albicans assessed as growth inhibition after 3 to 4 days by disk diffusion assay; assay type: functional
# Escherichia coli [15] = assay: Bactericidal activity against Escherichia coli ATCC 25922 after 18 to 24 hr; assay type: functional
# Klebsiella pneumoniae [16] = assay: Bactericidal activity against Klebsiella pneumoniae clinical isolate after 18 to 24 hr; assay type: functional
# Pseudomonas aeruginosa [17] = assay: Bactericidal activity against Pseudomonas aeruginosa ATCC 27853 after 18 to 24 hr; assay type: functional
# Staphylococcus aureus [18] = assay: Bactericidal activity against methicillin-resistant Staphylococcus aureus after 18 to 24 hr; assay type: functional
# Streptococcus pyogenes [19] = assay: Bactericidal activity against Streptococcus pyogenes after 18 to 24 hr; assay type: functional
# Escherichia coli [20] = assay: Antibacterial activity against Escherichia coli ATCC 25922 assessed as growth inhibition after 24 hr by macrodilution method; assay type: functional; conditions: ATCC 25922, 24 h
# Klebsiella pneumoniae [21] = assay: Antibacterial activity against Klebsiella pneumoniae clinical isolate assessed as growth inhibition after 24 hr by macrodilution method; assay type: functional
# Pseudomonas aeruginosa [22] = assay: Antibacterial activity against Pseudomonas aeruginosa ATCC 27853 assessed as growth inhibition after 24 hr by macrodilution method; assay type: functional; conditions: ATCC 27853, 24 h
# Staphylococcus aureus [23] = assay: Antibacterial activity against methicillin-resistant Staphylococcus aureus assessed as growth inhibition after 24 hr by macrodilution method; assay type: functional
# Escherichia coli [24] = assay: Antibacterial activity against Escherichia coli ATCC 25922 assessed as growth inhibition after 24 hr by disk diffusion assay; assay type: functional
# Streptococcus pyogenes [25] = assay: Antibacterial activity against Streptococcus pyogenes assessed as growth inhibition after 24 hr by macrodilution method; assay type: functional
# Staphylococcus aureus [26] = assay: Antibacterial activity against methicillin-resistant Staphylococcus aureus assessed as growth inhibition after 24 hr by disk diffusion assay; assay type: functional
# Streptococcus pyogenes [27] = assay: Antibacterial activity against Streptococcus pyogenes assessed as growth inhibition after 24 hr by disk diffusion assay; assay type: functional
# Staphylococcus aureus [28] = assay: Antibacterial activity against methicillin-resistant Staphylococcus aureus assessed as growth inhibition at 30 ug after 24 hr by halo zone test; conditions: read-out: DIZ
# Pseudomonas aeruginosa [29] = assay: microbe, parasite or virus in culture; conditions: ATCC 27853, 24 h, read-out: DIZ
# Description: Antibacterial activity against Pseudomonas aeruginosa ATCC 27853 assessed as growth inhibition at 30 ug after 24 hr by halo zone test
# Escherichia coli [30] = assay: microbe, parasite or virus in culture; conditions: ATCC 25922, 24 h, read-out: DIZ
# Description: Antibacterial activity against Escherichia coli ATCC 25922 assessed as growth inhibition at 30 ug after 24 hr by halo zone test
# Talaromyces marneffei [31] = assay: Antifungal activity against Talaromyces marneffei assessed as growth inhibition after 3 to 4 days by halo zone test; assay type: functional
# [32] = tested on: Trichophyton mentagrophytes; assay: Antifungal activity against Trichophyton mentagrophytes assessed as growth inhibition after 3 to 4 days by halo zone test; assay type: functional
# Candida albicans [33] = assay: Antifungal activity against Candida albicans assessed as growth inhibition after 3 to 4 days by halo zone test; assay type: functional
# Aspergillus fumigatus [34] = assay: Antifungal activity against Aspergillus fumigatus assessed as growth inhibition after 3 to 4 days by halo zone test; assay type: functional
Compound,MFC (Talaromyces marneffei [1]) [µg/mL],MFC (Aspergillus fumigatus [2]) [µg/mL],MFC [3] [µg/mL],MFC (Candida albicans [4]) [µg/mL],MIC (Talaromyces marneffei [5]) [µg/mL],MIC [6] [µg/mL],MIC (Aspergillus fumigatus [7]) [µg/mL],MIC (Candida albicans [8]) [µg/mL],diameter of the inhibition zone (DIZ) (Talaromyces marneffei [9]) [mm],diameter of the inhibition zone (DIZ) (Klebsiella pneumoniae [10]) [mm],diameter of the inhibition zone (DIZ) (Pseudomonas aeruginosa [11]) [mm],diameter of the inhibition zone (DIZ) [12] [mm],diameter of the inhibition zone (DIZ) (Aspergillus fumigatus [13]) [mm],diameter of the inhibition zone (DIZ) (Candida albicans [14]) [mm],MBC (Escherichia coli [15]) [µg/mL],MBC (Klebsiella pneumoniae [16]) [µg/mL],MBC (Pseudomonas aeruginosa [17]) [µg/mL],MBC (Staphylococcus aureus [18]) [µg/mL],MBC (Streptococcus pyogenes [19]) [µg/mL],MIC (Escherichia coli [20]) [µg/mL],further results
Cc1cc(O)c(C(c2c(O)cc(C)oc2=O)c2coc3ccccc3c2=O)c(=O)o1,50,50,50,50,25,25,12.5,12.5,14.2,17.2,21.2,17.8,21.3,24.1,50,50,50,50,50,25,MIC (Klebsiella pneumoniae [21]): 25 µg/mL; MIC (Pseudomonas aeruginosa [22]): 12.5 µg/mL; MIC (Staphylococcus aureus [23]): 25 µg/mL; diameter of the inhibition zone (DIZ) (Escherichia coli [24]): 18.6 mm; MIC (Streptococcus pyogenes [25]): 25 µg/mL; diameter of the inhibition zone (DIZ) (Staphylococcus aureus [26]): 18.5 mm; diameter of the inhibition zone (DIZ) (Streptococcus pyogenes [27]): 19.1 mm
Cc1cc2oc(=O)c(C(c3c(O)c4cc(C)c(C)cc4oc3=O)c3coc4ccccc4c3=O)c(O)c2cc1C,25,25,50,25,12.5,12.5,12.5,12.5,14.8,19.3,23.3,19.4,22.1,27.2,50,50,25,25,25,25,MIC (Klebsiella pneumoniae [21]): 12.5 µg/mL; MIC (Pseudomonas aeruginosa [22]): 12.5 µg/mL; MIC (Staphylococcus aureus [23]): 12.5 µg/mL; diameter of the inhibition zone (DIZ) (Escherichia coli [24]): 20.8 mm; MIC (Streptococcus pyogenes [25]): 12.5 µg/mL; diameter of the inhibition zone (DIZ) (Staphylococcus aureus [26]): 20.7 mm; diameter of the inhibition zone (DIZ) (Streptococcus pyogenes [27]): 21.2 mm
O=c1oc2ccccc2c(O)c1C(c1c(O)c2ccccc2oc1=O)c1coc2ccccc2c1=O,100,50,50,100,25,25,25,25,13.1,17.3,26.4,19.3,16.7,19.1,50,50,50,50,50,25,MIC (Klebsiella pneumoniae [21]): 12.5 µg/mL; MIC (Pseudomonas aeruginosa [22]): 25 µg/mL; MIC (Staphylococcus aureus [23]): 25 µg/mL; diameter of the inhibition zone (DIZ) (Escherichia coli [24]): 22.1 mm; MIC (Streptococcus pyogenes [25]): 25 µg/mL; diameter of the inhibition zone (DIZ) (Staphylococcus aureus [26]): 18.1 mm; diameter of the inhibition zone (DIZ) (Streptococcus pyogenes [27]): 21.5 mm
Cc1[nH]n(-c2ccccc2)c(=O)c1C(c1coc2ccccc2c1=O)c1c(C)[nH]n(-c2ccccc2)c1=O,100,50,50,50,25,25,25,25,14.3,14.5,13.1,18.1,20.7,23.9,100,100,100,50,50,25,MIC (Klebsiella pneumoniae [21]): 25 µg/mL; MIC (Pseudomonas aeruginosa [22]): 25 µg/mL; MIC (Staphylococcus aureus [23]): 25 µg/mL; diameter of the inhibition zone (DIZ) (Escherichia coli [24]): 15.5 mm; MIC (Streptococcus pyogenes [25]): 25 µg/mL; diameter of the inhibition zone (DIZ) (Staphylococcus aureus [26]): 15.6 mm; diameter of the inhibition zone (DIZ) (Streptococcus pyogenes [27]): 16.1 mm
O=C(O)c1cn(C2CC2)c2cc(N3CCNCC3)c(F)cc2c1=O [CIPROFLOXACIN],,,,,,,,,,,,,,,,,,,,,zone of inhibition at 30 µg/disc (Staphylococcus aureus [28]): 22 mm; zone of inhibition at 30 µg/disc (Pseudomonas aeruginosa [29]): 32 mm; zone of inhibition at 30 µg/disc (Escherichia coli [30]): 27 mm
COC1=CC(=O)C[C@@H](C)[C@]12Oc1c(Cl)c(OC)cc(OC)c1C2=O [GRISEOFULVIN],25,12.5,25,25,12.5,6.25,12.5,6.25,,,,,,,,,,,,,diameter of the inhibition zone (DIZ) (Talaromyces marneffei [31]): 20 mm; diameter of the inhibition zone (DIZ) [32]: 24 mm; diameter of the inhibition zone (DIZ) (Candida albicans [33]): 30 mm; diameter of the inhibition zone (DIZ) (Aspergillus fumigatus [34]): 27 mm
